Like-named read-outs stand apart in the source and are kept apart here.
Assays:
[1] = Rat oral pharmacokinetics, plasma and myocardium; type: in vivo, male Sprague-Dawley rats; conditions: for concentration at 1 h / concentration at 8 h: male, Sprague-Dawley, 10 mg/kg oral
Method: (§1) Absorption, distribution and metabolic stability were studied using an in vivo pharmacokinetics assay. Drug levels were assessed using LC/MS-MS.
(§2) Healthy male BALB/c mice (8-12 weeks old) weighing between 25 and 35 g, or Sprague-Dawley rats weighing between 250 and 300 g were procured from In-vivo Bioscience Bangalore, India. Three mice were housed in each cage. Temperature and humidity were maintained at 22±3° C. and 40-70%, respectively and illumination was controlled to give a sequence of 12 h light and 12 h dark cycle. Temperature and humidity were recorded by auto-controlled data logger system. All of the animals were provided laboratory rodent diet (Vetcare India Pvt. Ltd, Bengaluru) after the drug administration. Reverse osmosis water treated with ultraviolet light was provided ad libitum.
(§3) FPER-001 and perhexiline samples were freshly prepared each day before administration. The weighed quantity (36.5 mg) of FPER-001 for p.o. dosing was added into a mortar. […] The formulation was sonicated for 2 min to obtain a homogenous suspension.
(§4) Blood samples (approximately 60 μL) were collected from retro-orbital plexus of three mice at each time point (1, 4, 8, 24, 48, 72, 96, 120, 144, and 168 h) or of three rats at each time point (0.25, 0.5, 1, 2, 4, 8, 24, 25, 48, 72 and 73 h). Samples were collected into labeled micro-tubes, containing K2EDTA solution (20% K2EDTA solution) as an anticoagulant. Plasma was immediately harvested from the blood by centrifugation at 4000 rpm for 10 min at 4±2° C. and stored below −70° C. until bioanalysis. Immediately after collection of blood, myocardium samples were collected from each mouse at 1, 4, 8, 24, 48, 72, 96, 120, 144 and 168 h, or from each rat at 1, 8, 25 and 73 h. Myocardium samples were homogenized using ice-cold phosphate buffer saline (pH 7.4) and homogenates were stored below −70° C. until analysis. Total homogenate volume was five times the myocardium weight in mice, and three times the myocardium weight in rats.
(§5) The extraction procedures for plasma/myocardium samples and the spiked plasma calibration standards/quality control samples were identical.
(§6) A 25 μL of study sample or spiked calibration standard was added to individual pre-labeled micro-centrifuge tubes followed by 100 μL of internal standard prepared in acetonitrile (Glipizide 500 ng/mL) was added except for the blank, where 100 μL of acetonitrile was added. Samples were vortexed for 5 min. Samples were centrifuged for 10 min at a speed of 4000 rpm at 4° C. Following centrifugation, 100 μL of clear supernatant was transferred in 96-well plates and analysed using LC-MS/MS.
(§7) HPLC and MS conditions were as follows:
(§8) Non-Compartmental-Analysis tool of Phoenix WinNonlin® (Version 6.3) was used to assess the pharmacokinetic parameters. Peak plasma concentrations (Cmax) and time for the peak plasma concentrations (Tmax) were the observed values. The areas under the concentration time curve (AUClast and AUCinf) were calculated by linear trapezoidal rule. The terminal elimination rate constant (ke) was determined by regression analysis of the linear terminal portion of the log plasma concentration-time curve.
The oral absorption, distribution, and stability of FPER-001 and perhexiline were compared in the rat model as described above. Concentration was investigated for both plasma and myocardia in male Sprague-Dawley rats using an LC/MS/MS detection system as described above.

[2] = Mouse oral pharmacokinetics, plasma and myocardium; type: in vivo, male BALB/c mice; conditions: for AUC(0-t) / Cmax: male, BALB/c, 10 mg/kg oral gavage
Method: as §1, §2
as §3, with “(11.19” for “(36.5”, “suspension. Thirty mice were administered with the oral formulation at 10 mg/kg dose through oral gavage using a 22-G oral feeding needle. The dosing volume administered was 10 mL/kg.” for “suspension.”
as §4, §5, §6, §7, §8
The oral absorption, distribution, and stability of FPER-001 and perhexiline were compared in the mouse model as described above. Maximum concentration (Cmax) and area under the curve (AUC) were investigated for both plasma and myocardia in male BALB/c mice, following 10 mg/kg oral gavage of FPER-001 or perhexiline, using an LC/MS/MS detection system as described above.

CPT-1 = target: T1, CPT-1 (Rattus norvegicus, UniProt Q63704); conditions: rat cardiac mitochondria; cited from earlier work
T1 construct: host or cells: rat cardiac mitochondria
T1 sequence (Q63704 1-772): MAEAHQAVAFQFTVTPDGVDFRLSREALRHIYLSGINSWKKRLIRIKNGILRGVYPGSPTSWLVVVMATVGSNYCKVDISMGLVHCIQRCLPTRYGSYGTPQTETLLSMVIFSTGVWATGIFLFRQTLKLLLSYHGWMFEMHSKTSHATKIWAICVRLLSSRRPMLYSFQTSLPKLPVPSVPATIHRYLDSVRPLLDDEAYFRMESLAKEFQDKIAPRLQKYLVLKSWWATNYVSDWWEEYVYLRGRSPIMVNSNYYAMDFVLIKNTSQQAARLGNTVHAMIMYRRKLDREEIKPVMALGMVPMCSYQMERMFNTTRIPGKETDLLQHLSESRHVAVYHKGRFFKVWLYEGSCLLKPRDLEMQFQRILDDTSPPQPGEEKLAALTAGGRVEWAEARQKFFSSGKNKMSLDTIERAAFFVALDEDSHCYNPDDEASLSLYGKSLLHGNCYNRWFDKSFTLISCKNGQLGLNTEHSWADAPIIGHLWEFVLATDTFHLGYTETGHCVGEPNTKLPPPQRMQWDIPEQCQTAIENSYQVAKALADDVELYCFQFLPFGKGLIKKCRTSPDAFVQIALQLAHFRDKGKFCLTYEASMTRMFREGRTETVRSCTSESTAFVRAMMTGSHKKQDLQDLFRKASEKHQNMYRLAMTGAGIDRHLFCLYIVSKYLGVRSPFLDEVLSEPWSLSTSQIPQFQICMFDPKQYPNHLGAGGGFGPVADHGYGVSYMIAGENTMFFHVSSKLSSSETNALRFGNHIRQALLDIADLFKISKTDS

[3] = cited from earlier work
[4] = in comparison with nitroglycerin; cited from earlier work
hepatocytes = conditions: cited from earlier work
CPT-2 = conditions: read-out: inhibition of CPT-2; cited from earlier work
[5] = myocardium, 1 h, read-out: Conc., myocardium, 1 h
[6] = myocardium, 8 h, read-out: Conc., myocardium, 8 h
[7] = plasma, 1 h, read-out: Conc., plasma, 1 h
[8] = plasma, 8 h, read-out: Conc., plasma, 8 h
[9] = myocardium, read-out: AUC 0-24, myocardium
[10] = myocardium, read-out: Cmax, myocardium
[11] = plasma, read-out: AUC 0-24, plasma

Compound | concentration at 1 h [1, 5] [ng/mL] | concentration at 8 h [1, 6] [ng/mL] | concentration at 1 h [1, 7] [ng/mL] | concentration at 8 h [1, 8] [ng/mL] | AUC(0-t) [2, 9] [ng·h/mL] | Cmax [2, 10] [ng/mL] | AUC(0-t) [2, 11] [ng·h/mL] | Cmax ([2]; plasma, read-out: Cmax, plasma) [ng/mL] | also measured
FC1(F)CCC(C(CC2CCCCN2)C2CCCCC2)CC1 (mixture of isomers) [FPER-001, 2-(2-Cyclohexyl-2-(4,4-difluorocyclohexyl)ethyl)piperidine] | 5910 | 1290 | 386 | 179 | 32400 | 1680 | 3730 | 347 | drug concentration versus perhexiline, myocardium, 1 h ([1]; oral dosing, myocardium, 1 h): ~3 fold; drug concentration versus perhexiline, myocardium, 8 h ([1]; oral dosing, myocardium, 8 h): ~3.5 fold; drug concentration versus perhexiline, plasma, 1 h ([1]; oral dosing, plasma, 1 h): ~4 fold; drug concentration versus perhexiline, plasma, 8 h ([1]; oral dosing, plasma, 8 h): ~6 fold; drug exposure versus perhexiline, myocardium ([2]; oral dosing, myocardium): ~18 fold; maximum drug concentration versus perhexiline, myocardium ([2]; oral dosing, myocardium): ~2.5 fold; drug exposure versus perhexiline, plasma ([2]; oral dosing, plasma): ~11 fold; maximum drug concentration versus perhexiline, plasma ([2]; oral dosing, plasma): ~3 fold
C1CCC(C(CC2CCCCN2)C2CCCCC2)CC1 (stereo not drawn) [Perhexiline, 2-(2,2-dicyclohexylethyl)piperidine] | 1900 | 361 | 99.9 | 31.4 | 1830 | 665 | 350 | 116 | IC50 (CPT-1): 77 µM; plasma perhexiline to metabolite ratio, patients without toxicological side-effects ([3]; patients who showed no side-effects): 0.3; plasma perhexiline to metabolite ratio, patients with side-effects ([3]; patients who showed side-effects): 2.8; reduction in the symptoms of angina [4]: greater than 50%; inhibition of fatty acid oxidation in hepatocytes (hepatocytes): 22 µM; IC50 (CPT-2): 79 µM

— patent US20160102058A1, “FLUORO-PERHEXILINE COMPOUNDS AND THEIR THERAPEUTIC USE” (THE UNIVERSITY COURT OF THE UNIVERSITY OF ABERDEEN, priority 2013, published 2016)
